Laboratory results taken from patent publication US8822467B2 (Ligand Pharmaceuticals Inc., priority 2009, dated 2014).
Where two headings read alike, the source gives them in different places.

Target: T1, human CRTH2 (Homo sapiens, UniProt Q9Y5Y4)
T1 construct: expressed in transfected cells
T1 sequence (Q9Y5Y4 1-395): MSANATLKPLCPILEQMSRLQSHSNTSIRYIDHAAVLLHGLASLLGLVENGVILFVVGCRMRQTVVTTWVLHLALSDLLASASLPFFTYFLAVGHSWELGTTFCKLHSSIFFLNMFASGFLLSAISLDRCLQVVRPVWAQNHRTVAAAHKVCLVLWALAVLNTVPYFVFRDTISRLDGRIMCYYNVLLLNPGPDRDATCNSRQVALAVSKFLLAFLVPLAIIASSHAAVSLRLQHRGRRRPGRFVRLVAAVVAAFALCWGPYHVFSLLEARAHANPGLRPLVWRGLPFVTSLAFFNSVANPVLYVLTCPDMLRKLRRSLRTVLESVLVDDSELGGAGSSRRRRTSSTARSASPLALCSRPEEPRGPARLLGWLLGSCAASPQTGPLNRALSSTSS
Experiment: [35S]GTPγS binding assay (SPA) on membranes from CHO-K1 cells stably expressing human CRTH2, stimulated with 60 nM DHK-PGD2
Type: biochemical
Conditions: read-out: CRTH2 hGTPγS IC50
Experimental: [^35S]GTPγS Binding Assay
SPA [^35S]G-TPγS binding was performed on membranes from CHO-K1 cells stably expressing human CRTH2. To a white, clear-bottomed 384-well plate, 4 μg membrane protein was incubated in the binding buffer (20 mM HEPES, pH 7.4, 10 mM MgCl2, 300 mM NaCl, 0.2% BSA) with 60 nM DHK-PGD2, 500 pM [^35S]GTPγS, 10 μM GDP, and 100 μg wheat germ agglutinin-coupled SPA beads (GE Healthcare) with and without increasing concentrations of compounds. The final assay volume was 40 μL and contained 1% DMSO. Samples were incubated for 2 h at ambient temperature. Plates were centrifuged 5 min at 1500 rpm. Plates were read after an additional 4 h using the Trilux 1450 Microbeta (PerkinElmer) with a 30 sec/well reading time.

[1] = membranes of CHO-K1 cells expressing human CRTH2, 60 nM DHK-PGD2, Table 1

Row | SMILES | IC50 (potency class symbols, Table 2) | IC50 [1]
1 | CN(Cc1ccc(OCC(=O)O)c(-c2cccc(C#N)c2)c1)S(=O)(=O)c1ccc(F)cc1 [Example 5, 2-(2-(3-cyanophenyl)-4-((4-fluoro-N-methylphenylsulfonamido)methyl)phenoxy)acetic acid] | < 100 nM | –
2 | N#Cc1cccc(-c2cc(CNS(=O)(=O)c3ccc(F)cc3)ccc2OCC(=O)O)c1 [Example 9, 2-(2-(3-cyanophenyl)-4-((4-fluorophenylsulfonamido)methyl)phenoxy)acetic acid] | < 100 nM | –
3 | CNS(=O)(=O)c1cccc(-c2cc(CN(C)S(=O)(=O)c3ccc(F)c(Cl)c3)ccc2OCC(=O)O)c1 [Example 16, 2-(2-(3-N-methylsulfamoylphenyl)-4-((3-chloro-4-fluoro-N-methylphenylsulfonamido)methyl)phenoxy)acetic acid] | < 100 nM | –
4 | CC(c1ccc(OCC(=O)O)c(-c2cccc(C(F)(F)F)c2)c1)N(C)S(=O)(=O)c1ccc(F)cc1 (centres unmarked) [Example 22, 2-(2-(3-trifluoromethylphenyl)-4-(1-(4-fluoro-N-methylphenylsulfonamido)ethyl)phenoxy)acetic acid] | 100 to 1000 nM | –
5 | CN(Cc1ccc(OCC(=O)O)c(-c2ccc(F)c(S(C)(=O)=O)c2)c1)S(=O)(=O)c1ccc(F)cc1 [Example 28, 2-((4-fluoro-3-(methylsulfonyl)phenyl)-4-((4-fluoro-N-methylphenylsulfonamido)methyl)phenoxy)acetic acid] | < 100 nM | –
6 | CN(Cc1ccc(OC(C)(C)C(=O)O)c(-c2cccc(C(F)(F)F)c2)c1)S(=O)(=O)c1ccc(F)cc1 [Example 34, 2-(2-(3-trifluoromethylphenyl)-4-((4-fluoro-N-methylphenylsulfonamido)methyl)phenoxy)-2-methylpropanoic acid] | 1000 to 10000 nM | –
7 | C[C@@H](Oc1ccc(CN(C)S(=O)(=O)c2ccc(F)cc2)cc1-c1cccc(C(F)(F)F)c1)C(=O)O [Example 35, (R)-2-(2-(3-trifluoromethylphenyl)-4-((4-fluoro-N-methylphenylsulfonamido)methyl)phenoxy)propanoic acid] | 1000 to 10000 nM | –
8 | C[C@H](Oc1ccc(CN(C)S(=O)(=O)c2ccc(F)cc2)cc1-c1cccc(C(F)(F)F)c1)C(=O)O [Example 36, (S)-2-(2-(3-trifluoromethylphenyl)-4-((4-fluoro-N-methylphenylsulfonamido)methyl)phenoxy)propanoic acid] | 100 to 1000 nM | –
9 | COc1cc(F)cc(-c2cc(CN(C)S(=O)(=O)c3ccc(F)c(Cl)c3)ccc2OCC(=O)O)c1 [Example 37, 2-(3-fluoro-5-methoxyphenyl)-4-((3-chloro-4-fluoro-N-methylphenylsulfonamido)methyl)phenoxyacetic acid] | < 100 nM | 0.6 nM
10 | CN(Cc1ccc(OCC(=O)O)c(-c2cc(F)cc(C#N)c2)c1)S(=O)(=O)c1ccc(Cl)c(Cl)c1 [Example 38, 2-(3-cyano-5-fluorophenyl)-4-((3,4-dichloro-N-methylphenylsulfonamido)methyl)phenoxyacetic acid] | < 100 nM | 0.7 nM
11 | CN(Cc1ccc(OCC(=O)O)c(-c2cccc(S(C)(=O)=O)c2)c1)S(=O)(=O)c1ccc(F)c(Cl)c1 [Example 39, 2-(3-methylsulfonylphenyl)-4-((3-chloro-4-fluoro-N-methylphenylsulfonamido)methyl)phenoxyacetic acid] | < 100 nM | –
12 | COc1ccc(S(=O)(=O)N(C)Cc2ccc(OCC(=O)O)c(-c3cc(F)cc(C#N)c3)c2)cc1F [Example 41, 2-(3-cyano-5-fluorophenyl)-4-((3-fluoro-4-methoxy-N-methylphenylsulfonamido)methyl)phenoxyacetic acid] | < 100 nM | –
13 | CN(Cc1cc(-c2cccc(C#N)c2)c(OCC(=O)O)cc1Cl)S(=O)(=O)c1ccc(F)c(Cl)c1 [Example 42, 2-(3-cyanophenyl)-4-((3-chloro-4-fluoro-N-methylphenylsulfonamido)methyl)-5-chlorophenoxyacetic acid] | < 100 nM | 1.5 nM
14 | CN(Cc1cc(-c2cccc(C#N)c2)c(OCC(=O)O)cc1F)S(=O)(=O)c1ccc(F)c(Cl)c1 [Example 43, 2-(3-cyanophenyl)-4-((3-chloro-4-fluoro-N-methylphenylsulfonamido)methyl)-5-fluorophenoxyacetic acid] | < 100 nM | –
15 | CN(Cc1ccc(OCC(=O)O)c(-c2cc(F)cc(C#N)c2)c1)S(=O)(=O)c1ccc(F)c(F)c1 [Example 44, 2-(3-cyano-5-fluorophenyl)-4-((3,4-difluoro-N-methylphenylsulfonamido)methyl)phenoxyacetic acid] | < 100 nM | 1.8 nM
16 | CN(Cc1ccc(OCC(=O)O)c(-c2cc(F)cc(C#N)c2)c1)S(=O)(=O)c1cccc(Cl)c1 [Example 45, 2-(3-cyano-5-fluorophenyl)-4-((3-chloro-N-methylphenylsulfonamido)methyl)phenoxyacetic acid] | < 100 nM | 2 nM
17 | COc1cc(F)cc(-c2cc(CN(C)S(=O)(=O)c3ccc(F)c(F)c3)ccc2OCC(=O)O)c1 [Example 46, 2-(3-fluoro-5-methoxyphenyl)-4-((3,4-difluoro-N-methylphenylsulfonamido)methyl)phenoxyacetic acid] | < 100 nM | 2.1 nM
18 | CN(Cc1ccc(OCC(=O)O)c(-c2cccc(S(C)(=O)=O)c2)c1)S(=O)(=O)c1ccc(F)c(F)c1 [Example 47, 2-(3-methylsulfonylphenyl)-4-((3,4-difluoro-N-methylphenylsulfonamido)methyl)phenoxyacetic acid] | < 100 nM | –
19 | COc1cc(F)cc(-c2cc(CN(C)S(=O)(=O)c3ccc(OC)c(F)c3)ccc2OCC(=O)O)c1 [Example 48, 2-(3-fluoro-5-methoxyphenyl)-4-((3-fluoro-4-methoxy-N-methylphenylsulfonamido)methyl)phenoxyacetic acid] | < 100 nM | 2.9 nM
20 | CN(Cc1cc(-c2cccc(C#N)c2)c(OCC(=O)O)cc1Cl)S(=O)(=O)c1ccc(F)cc1 [Example 49, 2-(3-cyanophenyl)-4-((4-fluoro-N-methylphenylsulfonamido)methyl)-5-chlorophenoxyacetic acid] | < 100 nM | –
21 | CNS(=O)(=O)c1cccc(-c2cc(CN(C)S(=O)(=O)c3ccc(F)c(F)c3)ccc2OCC(=O)O)c1 [Example 50, 2-(3-N-methylsulfamoylphenyl)-4-((3,4-difluoro-N-methylphenylsulfonamido)methyl)phenoxyacetic acid] | < 100 nM | –
22 | CN(Cc1ccc(OCC(=O)O)c(-c2cc(F)cc(F)c2)c1)S(=O)(=O)c1ccc(Cl)c(Cl)c1 [Example 51, 2-(3,5-difluorophenyl)-4-((3,4-dichloro-N-methylphenylsulfonamido)methyl)phenoxyacetic acid] | < 100 nM | 3.4 nM
23 | CN(Cc1ccc(OCC(=O)O)c(-c2cccc(S(N)(=O)=O)c2)c1)S(=O)(=O)c1ccc(F)cc1 [Example 52, 2-(3-aminosulfonylphenyl)-4-((4-fluoro-N-methylphenylsulfonamido)methyl)phenoxyacetic acid] | < 100 nM | –
24 | CN(Cc1cc(-c2cccc(C#N)c2)c(OCC(=O)O)cc1Cl)S(=O)(=O)c1cccc(F)c1 [Example 53, 2-(3-cyanophenyl)-4-((3-fluoro-N-methylphenylsulfonamido)methyl)-5-chlorophenoxyacetic acid] | < 100 nM | –
25 | CNS(=O)(=O)c1cccc(-c2cc(CN(C)S(=O)(=O)c3ccc(F)cc3)ccc2OCC(=O)O)c1 [Example 54, 2-(3-N-methylsulfamoylphenyl)-4-((4-fluoro-N-methylphenylsulfonamido)methyl)phenoxyacetic acid] | < 100 nM | –
26 | CN(Cc1ccc(OCC(=O)O)c(-c2cc(F)cc(C#N)c2)c1)S(=O)(=O)c1ccc(F)c(Cl)c1 [Example 55, 2-(3-cyano-5-fluorophenyl)-4-((3-chloro-4-fluoro-N-methylphenylsulfonamido)methyl)phenoxyacetic acid] | < 100 nM | –
27 | CN(Cc1ccc(OCC(=O)O)c(-c2cccc(C#N)c2)c1)S(=O)(=O)c1ccc(Cl)c(Cl)c1 [Example 56, 2-(3-cyanophenyl)-4-((3,4-dichloro-N-methylphenylsulfonamido)methyl)phenoxyacetic acid] | < 100 nM | –
28 | CN(Cc1ccc(OCC(=O)O)c(-c2cccc(S(C)(=O)=O)c2)c1)S(=O)(=O)c1cccc(F)c1 [Example 57, 2-(3-methylsulfonylphenyl)-4-((3-fluoro-N-methylphenylsulfonamido)methyl)phenoxyacetic acid] | < 100 nM | –
29 | CCS(=O)(=O)c1cccc(-c2cc(CN(C)S(=O)(=O)c3ccc(F)c(F)c3)ccc2OCC(=O)O)c1 [Example 58, 2-(3-ethylsulfonylphenyl)-4-((3,4-difluoro-N-methylphenylsulfonamido)methyl)phenoxyacetic acid] | < 100 nM | –
30 | Cc1ccc(S(=O)(=O)N(C)Cc2ccc(OCC(=O)O)c(-c3cccc(S(C)(=O)=O)c3)c2)cc1 [Example 59, 2-(3-methylsulfonylphenyl)-4-((4-methyl-N-methylphenylsulfonamido)methyl)phenoxyacetic acid] | < 100 nM | –
